According to patent US20050038058A1, “Novel compounds and methods for therapy” (Institute of Organic Chemistry and Biochemistry, priority 2001, published 2005):
Values after ≈ are worked out from the molar mass of the structure shown. Where two headings read alike, the source gives them in different places. Blank lines part the entries; values can stand above or below the molecule they belong to.

Columns and labels:
MSV [1] = assay: Antiviral activity, MSV, Table 1a; type: cell-based
VZV TK − YS/R = assay: Antiviral activity, VZV TK- YS/R, Table 1a; type: cell-based
CEM cells = assay: Inhibition of CEM cell growth (cytostatic activity); type: cell-based
Method: (§1) Cytostatic and antimetabolic effect of acyclic nucleoside phosphonates in vitro. The assays to examine the inhibition of CEM cell growth by the test compounds have been described previously (Balzarini et al., AIDS 5:21-28, 1991). The 50% cytostatic concentration (CC50) was defined as the concentration of compound that reduced the number of living cells by 50% . To measure MT-4 cell toxicity of the test compounds, 5×10^4 MT-4 cells were incubated in the wells of 96-well microplates in the presence or absence of different concentrations of the test compounds for 5 days at 37° C. The CC50 was then calculated from the number of living cells counted under a microscope by the trypan blue exclusion method.

VZV TK + YS = assay: Antiviral activity, VZV TK+ YS, Table 1a; type: cell-based
HSV-1 (KOS) = assay: Antiviral activity, HSV-1 (KOS), Table 1a; type: cell-based
HIV-1(IIIB) [2] = assay: HIV-1(IIIB)-induced cytopathicity in CEM cell cultures; type: cell-based
From the text: (§2) Viruses. The origins of MSV, HIV type 1 (HIV-1) (strain IIIB and Ba-L), HIV-2 (strain ROD) and FIV (strain Petaluma) have been described previously (Balzarini et al., AIDS 5: 21-28, 1991; De Clercq et al., Proc. Soc. Exp. Biol. Med. 137:590-594, 1971; Egberink et al., Proc. Natl. Acad. Sci. 87:3087-3091, 1990; Hartmann et al., Antiviral Chem. Chemother. 5:13-19, 1994; Popovic et al., Science 224:497-500, 1984). HIV-1(IIIB) and HIV-2(ROD) stocks were obtained from supernatants of virus-infected MT-4 cell cultures. HIV-1BaL was expanded in human primary M/M, whose supernatants were collected, filtered and stored at −80° C. before use. Characteristics of viral stocks used for this study were 2.1×10^8 HIV-RNA genomes/ml (corresponding to 35 ng of p24 antigen) and 5,000 tissue culture infectious doses 50% per ml (TCID50/ml) as assessed by virus titration in other primary M/M cultures. The isolation and characterization of the clinical HIV-1 isolates L1S, L6S and L6S/PMEA has been reported (Thormar et al., Proc. Natl. Acad. Sci. USA 93:3283-3287, 1995; Van Laethem et al., AIDS 15:553-561, 2001). […] HIV-1/L6S/PMEA is the clinical isolate HIV-1/L6S that has been isolated after culturing the virus for 11 passages in the presence of increasing concentrations of PMEA (adefovir).
(§3) In vitro antiviral assays. The activity against HIV-1- and HIV-2-induced cytopathicity was examined in MT-4 cell cultures at day 5 post infection and based on the determination of cell viability by trypan blue dye staining or in CEM cell cultures at day 4 to 5 post infection and based on the microscopical examination of virus-induced giant cell formation. HIV-1 and HIV-2 were added at 100 CCID50 to the cell cultures.

HSV-2 (G) = assay: Antiviral activity, HSV-2 (G), Table 1a; type: cell-based
HIV-2 = assay: Antiviral activity, HIV-2, Table 1a; type: cell-based
HSV-1 TK- VMW 1837 = assay: Antiviral activity, HSV-1 TK- VMW 1837, Table 1a; type: cell-based
CMV AD-169 = assay: Antiviral activity, CMV AD-169, Table 1a; type: cell-based
VZV TK − 07/1 = assay: Antiviral activity, VZV TK- 07/1, Table 1a; type: cell-based
CMV Davis = assay: Antiviral activity, CMV Davis, Table 1a; type: cell-based
VZV TK + OKA = assay: Antiviral activity, VZV TK+ OKA, Table 1a; type: cell-based
[3] = Inhibition of CEM cell growth (cytostatic activity); type: cell-based; conditions: human, CEM cells
Method: as §1

HIV-2(ROD) [4] = assay: HIV-2(ROD)-induced cytopathicity in MT-4 cell cultures; type: cell-based; conditions: Human immunodeficiency virus 2, MT4, read-out: EC50 HIV-2 (ROD) (MT-4)
From the text: as §2, §3

HIV-2(ROD) [5] = assay: HIV-2(ROD)-induced cytopathicity in CEM cell cultures; type: cell-based; conditions: Human immunodeficiency virus 2, CCRF-CEM, read-out: EC50 HIV-2 (ROD) (CEM)
From the text: as §2, §3

MSV [6] = assay: MSV-induced transformation of murine embryo fibroblast C3H/3T3 cell cultures; type: cell-based; conditions: Mus musculus
Method: The inhibitory effect of the test compounds on MSV-induced transformation of murine embryo fibroblast C3H/3T3 cell cultures was examined microscopically at day 6 post infection. MSV was added at 75 focus-forming units to the cell cultures. The detailed procedures for the antiretroviral evaluations has been described in detail before (Balzarini et al., AIDS 5:21-28, 1991; Balzarini et al., Antimicrob. Agents Chemother. 37:332-338, 1993; De Clercq et al., Proc. Soc. Exp. Biol. Med. 137:590-594, 1971).

HIV-1(IIIB) [7] = assay: HIV-1(IIIB)-induced cytopathicity in MT-4 cell cultures; type: cell-based; conditions: Human immunodeficiency virus 1, IIIB, MT4; Table 2
From the text: as §2, §3

[8] = MT-4 cell toxicity (trypan blue exclusion); type: cell-based; conditions: human, MT-4 cells; reduction of cell viability; Table 2
Method: as §1

[9] = Alteration of C3H cell morphology (minimal inhibitory concentration); type: cell-based, murine; conditions: mouse, C3H/3T3 embryo fibroblast cells; microscopically visible alteration of cell morphology; > means no visible toxicity at the indicated concentration; read-out: CC50 C3H (minimal inhibitory concentration)

SMILES: C[C@@H](COc1cc(N)nc(N)n1)OCP(=O)(O)O [Compound 10, 2,4-diamino-6-(S)-[2-(phosphonome-thoxy)propoxy]pyrimidine]
- Antiviral Activity EC50 MSV (MSV [1]): 6.1 µg/mL
- Antiviral Activity EC50 VZV TK − YS/R (VZV TK − YS/R): >50 µg/mL
- CC50 (CEM) (CEM cells; 50% cytostatic concentration, CEM cell proliferation, Table 1): >100 µg/mL
- Antiviral Activity EC50 VZV TK + YS (VZV TK + YS): >50 µg/mL
- Antiviral Activity EC50 HSV-1 (KOS) (HSV-1 (KOS)): >80 µg/mL
- EC50 HIV-1 (CEM) (HIV-1(IIIB) [2]; HIV-1(IIIB)-induced cytopathicity in CEM cell cultures, Table 1): 51 µg/mL (≈ 183 µM)
- Antiviral Activity EC50 HIV-1 (HIV-1): 51 µg/mL
- Antiviral Activity EC50 HSV-2 (G) (HSV-2 (G)): >80 µg/mL
- Antiviral Activity EC50 HIV-2 (HIV-2): 33 µg/mL
- Antiviral Activity EC50 HSV-1 TK- VMW 1837 (HSV-1 TK- VMW 1837): >80 µg/mL
- Antiviral Activity EC50 CMV AD-169 (CMV AD-169): >50 µg/mL
- Antiviral Activity EC50 VZV TK − 07/1 (VZV TK − 07/1): >50 µg/mL
- Antiviral Activity EC50 CMV Davis (CMV Davis): >50 µg/mL
- Antiviral Activity EC50 VZV TK + OKA (VZV TK + OKA): >50 µg/mL

SMILES: Nc1nc(O)cc(OCCOCP(=O)(O)O)n1 [Compound 4, 2-amino-4-hydroxy-6-[2-(phosphonomethoxy)ethoxy]pyrimidine]
- CC50 ([3]; 50% cytostatic concentration, CEM cell proliferation, Table 1, read-out: CC50 (CEM)): 2.5 µg/mL (≈ 9.43 µM)
- CC50 ([3]; inhibition of cell proliferation, Table 2, read-out: CC50 CEM): 2.5 ± 0.2 µg/mL (≈ 9.43 µM)
- CC50 ([3]; read-out: CC50 for CEM cells): 2.5 µg/mL (≈ 9.43 µM)
- EC50 (HIV-2(ROD) [4]): 2.1 µg/mL (≈ 7.92 µM)
- EC50 (HIV-1(IIIB) [2]; Human immunodeficiency virus 1, CCRF-CEM, HIV-1 (IIIB) in CEM, no addition, Table 3, read-out: EC50 as such): 1.4 ± 0.71 µg/mL (≈ 5.28 µM)
- EC50 (HIV-1(IIIB) [2]; Human immunodeficiency virus 1, CCRF-CEM, HIV-1 (IIIB) in CEM, Ade 100 μM, read-out: EC50 upon addition of Ade (100 μM)): 1.7 ± 1.2 µg/mL (≈ 6.41 µM)
- EC50 (HIV-1(IIIB) [2]; Human immunodeficiency virus 1, CCRF-CEM, HIV-1 (IIIB) in CEM, Ado 400 μM, read-out: EC50 upon addition of Ado (400 μM)): 1.4 ± 0.93 µg/mL (≈ 5.28 µM)
- EC50 (HIV-1(IIIB) [2]; Human immunodeficiency virus 1, CCRF-CEM, HIV-1 (IIIB) in CEM, Guo 10 μM, read-out: EC50 upon addition of Guo (10 μM)): 1.9 ± 0.92 µg/mL (≈ 7.17 µM)
- EC50 (HIV-1(IIIB) [2]; Human immunodeficiency virus 1, CCRF-CEM, HIV-1 (IIIB) in CEM, dCyd 1 mM, read-out: EC50 upon addition of dCyd (1 mM)): 2.4 ± 1.9 µg/mL (≈ 9.05 µM)
- EC50 (HIV-1(IIIB) [2]; Human immunodeficiency virus 1, CCRF-CEM, HIV-1 (IIIB) in CEM, dThd 10 μM, read-out: EC50 upon addition of dThd (10 μM)): 1 ± 0.3 µg/mL (≈ 3.77 µM)
- EC50 (HIV-1(IIIB) [2]; Human immunodeficiency virus 1, CCRF-CEM, HIV-1(IIIB)-induced cytopathicity in CEM cell cultures, Table 1, read-out: EC50 HIV-1 (CEM)): 2.2 µg/mL (≈ 8.3 µM)
- EC50 (HIV-1(IIIB) [2]; Human immunodeficiency virus 1, IIIB, CCRF-CEM, giant cell formation, mean ±SD of 2 to 4 experiments, Table 2, read-out: EC50 HIV-1 (IIIB) (CEM)): 1.4 ± 0.7 µg/mL (≈ 5.28 µM)
- EC50 (HIV-2(ROD) [5]): 1.4 ± 1.2 µg/mL (≈ 5.28 µM)
- EC50 (MSV [6]; C3H, read-out: EC50 against MSV-induced C3H cell transformation): 0.05 to 0.15 µg/mL (≈ 0.189 to 0.566 µM)
- EC50 (MSV [6]; MSV-induced C3H cell transformation, Table 2, read-out: EC50 MSV (C3H)): 0.08 ± 0.03 µg/mL (≈ 0.302 µM)
- EC50 (HIV-1(IIIB) [7]): 1.9 ± 0.4 µg/mL (≈ 7.17 µM)
- CC50 at 5 days [8]: 10 ± 2.2 µg/mL (≈ 37.7 µM)
- Minimal concentration causing visible cell morphology alteration [9]: ≥ 16 µg/mL

- melting point: 218 °C
SMILES: Nc1nc(N)c(Br)c(OCCOCP(=O)(O)O)n1 [5-bromo-derivative of 1, 2,4-Diamino-5-bromo-6-[2-(phosphonomethoxy)ethoxy]pyrimidine]
- Cytotoxicity at 100 μg/mL (CEM cells; 100 μg/mL): not toxic
- Concentration at which active against HIV-1 in CEM cell cultures (HIV-1(IIIB) [2]): 2.5 µg/mL

SMILES: Nc1nc(OCCOCP(=O)(O)O)cc(OCCOCP(=O)(O)O)n1 [Example 10, 2-Amino-4,6-bis[2-(phosphonomethoxy)ethoxy]pyrimidine]
- melting point: 108 °C
